Test results from ChEMBL document CHEMBL1201862, “PubChem BioAssay data set” (2004).
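Interpolation was linear, between the two tested concentrations surrounding the appropriate level; five concentrations were tested over 48 hours in 96-well plates. GI50 marks 50% less growth.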 Active and inactive are the calls of the source. Rule as the data show it: active = GI50 up to about 1.1 µM and inactive = higher.

Experiments:
Experiment in all cases: DTP human tumour cell line panel, 48 h
TK-10 = test system: TK-10
KM12 = test system: KM12
UACC-62 = test system: UACC-62
NCI-H226 = test system: NCI-H226
A498 = test system: A498
OVCAR-4 = test system: OVCAR-4
SN12C = test system: SN12C
786-0 = test system: 786-0
SNB-75 = test system: SNB-75
HCT-116 = test system: HCT-116
HCT-15 = test system: HCT-15
MOLT-4 = test system: MOLT-4
MDA-MB-435 = test system: MDA-MB-435
MDA-N = test system: MDA-N
HL-60 = test system: HL-60
CAKI-1 = test system: CAKI-1
SK-MEL-28 = test system: SK-MEL-28
EKVX = test system: EKVX
HOP-62 = test system: HOP-62
T47D = test system: T47D

SMILES | GI50 (TK-10) | GI50 (KM12) | GI50 (UACC-62) | GI50 (NCI-H226) | GI50 (A498) | GI50 (OVCAR-4) | GI50 (SN12C) | GI50 (786-0) | GI50 (SNB-75) | GI50 (HCT-116) | GI50 (HCT-15) [µM] | GI50 (MOLT-4) | GI50 (MDA-MB-435) | GI50 (MDA-N) | GI50 (HL-60) | GI50 (CAKI-1) | GI50 (SK-MEL-28) | GI50 (EKVX) | GI50 (HOP-62) | GI50 (T47D)
Nc1onc2c1Cc1c(noc1N)-c1ccccc1-2 | > 100 µM (inactive) | 49.8 µM (inactive) | 27.4 µM (inactive) | > 100 µM (inactive) | 26.7 µM (inactive) | > 100 µM (inactive) | 85.3 µM (inactive) | 79.3 µM (inactive) | 33.2 µM (inactive) | 48.9 µM (inactive) | 43.8 | 74.8 µM (inactive) | 25.2 µM (inactive) | 48.9 µM (inactive) | 19.8 µM (inactive) | 44.4 µM (inactive) | > 100 µM (inactive) | 16.3 µM (inactive) | > 100 µM (inactive) | 27 µM (inactive)
C/C(=N\NC(N)=O)C(CN(C)C)C(c1ccccc1)c1c(O)c2ccccc2oc1=O (stereo not given) | > 100 µM (inactive) | > 100 µM (inactive) | > 100 µM (inactive) | > 100 µM (inactive) | > 100 µM (inactive) | > 100 µM (inactive) | > 100 µM (inactive) | > 100 µM (inactive) | > 100 µM (inactive) | > 100 µM (inactive) | > 100 | 71.9 µM (inactive) | > 100 µM (inactive) | > 100 µM (inactive) | 38.4 µM (inactive) | > 100 µM (inactive) | > 100 µM (inactive) | > 100 µM (inactive) | > 100 µM (inactive) | > 100 µM (inactive)
CC(C)C(NC(=O)C(Cc1ccccc1)NC(=O)[C@H]1CCC[C@H]1NC(=O)C(Cc1ccc(OC(C)(C)C)cc1)NC(=O)OC(C)(C)C)C(N)=O (stereo not given in full) | 28.5 µM (inactive) | 21.9 µM (inactive) | 13.8 µM (inactive) | 22.4 µM (inactive) | 10.7 µM (inactive) | 19.4 µM (inactive) | 18.2 µM (inactive) | 60.1 µM (inactive) | 11.4 µM (inactive) | 17.3 µM (inactive) | 36.1 | 17.4 µM (inactive) | 17 µM (inactive) | 18.3 µM (inactive) | 34.8 µM (inactive) | 95.9 µM (inactive) | 18.4 µM (inactive) | > 100 µM (inactive) | 16.6 µM (inactive) | 20 µM (inactive)
CSCCC(NC(=O)Cc1ccc(C(=O)c2ccccc2)cc1)C(=O)O (stereo not given) | > 100 µM (inactive) | > 100 µM (inactive) | > 100 µM (inactive) | > 100 µM (inactive) | > 100 µM (inactive) | > 100 µM (inactive) | > 100 µM (inactive) | > 100 µM (inactive) | > 100 µM (inactive) | > 100 µM (inactive) | > 100 | > 100 µM (inactive) | > 100 µM (inactive) | > 100 µM (inactive) | > 100 µM (inactive) | > 100 µM (inactive) | > 100 µM (inactive) | > 100 µM (inactive) | > 100 µM (inactive) | > 100 µM (inactive)
O=C1c2ccccc2/C(=N\c2ccc3ccccc3c2)C1(C1=C(c2ccccc2)/C(=N/c2ccc3ccccc3c2)c2ccccc21)c1ccccc1 (stereo not given) | 45.5 µM (inactive) | 4.14 µM (inactive) | 5.15 µM (inactive) | 7.21 µM (inactive) | > 10 µM (inactive) | 5.37 µM (inactive) | 9.48 µM (inactive) | 4.8 µM (inactive) | 7.67 µM (inactive) | 3.85 µM (inactive) | 2.55 | 2.58 µM (inactive) | 3.33 µM (inactive) | 3.89 µM (inactive) | 4.5 µM (inactive) | 7.53 µM (inactive) | 6.27 µM (inactive) | 28.8 µM (inactive) | 12.5 µM (inactive) | 5.5 µM (inactive)
